The subject of one data set is GL261-luc glioma. Conditions: GL261, single agent 50 mg/kg; control 29.5 days. The protocol: All animal studies were approved by the Animal Care and Use Committee (ACUC) of the Johns Hopkins University. The intracranial implantation of GL261-luc in the frontal lobe and D425 cells in the cerebellum of the mouse brain followed the procedure described before (3,4). […] MBZ and other benzimidazoles were prepared by either mixing the power with PBS and sesame oil (1:1, v:v) (Sigma) or by grinding the tablets to powder and resuspending in the aforementioned PBS/sesame oil mixture. Elacridar was prepared as a 10 mg/ml suspension in 0.5% hydroxypropylmethylcellulose and 0.5% Tween 80 in PBS similarly as described before (15).
Animal survival data were analyzed by GraphPad Prism 5.0. The p-values were determined by a Mantel-Cox test. A p-value under 0.05 was accepted as statistically significant.

The next data set concerns D425 medulloblastoma. As to the kind of experiment: Orthotopic D425 medulloblastoma xenograft model (survival). Conditions: orthotopic D425 medulloblastoma xenograft; MBZ-C 50 mg/kg five days a week, elacridar 50 mg/kg 7 days. In kind it is in vivo, mouse.
Another data set concerns HT29. As to the kind of experiment: HT29 colon cancer flank xenograft. In kind it is in vivo, Nude mice. On the procedure: (§1) FIGS. 9A-9E. […] Two human colorectal carcinoma cell lines, HT29 and SW480, were implanted subcutaneously into the flanks of Nude mice and treated for four weeks with 50 mg/kg MBZ by oral gavage. Tumor volumes were measured twice weekly, averaged, and plotted over the course of the experiment. HT29 xenograft (FIG. 9A) and SW480 xenograft (B) growth inhibitory curves. Resected flank tumors from each group were weighed at the end of the experiment and compared to untreated control (FIG. 9C, FIG. 9D) Paraffin-embedded flank tumor tissues were stained for Ki67 proliferation marker. […] Five randomly selected fields from each slide were quantified as the percent Ki67-positive cell×100/total number of cells and represent the mean+SEM of five animals. *, P<0.05.

The next data set in a line: in vivo. To be noted: mouse. The protocol: Female C57BL6 mice, 5-6 weeks of age, were purchased from NCl. Animal experimentation was conducted under an approved IACUC protocol and complied with local and national guidelines. All MBZ polymorphs and tablets were administered by oral gavage at a dose of 50 mg/kg. Elacridar was administered by oral gavage at 50 mg/kg 2 hours prior to the administration of MBZ-C. Mice (3 animals/time point) were first anesthetized via intraperitoneal injection of 60 μl of a stock solution containing ketamine hydrochloride (75 mg/kg) (100 mg/ml; Ketamine HCl; Abbot Laboratories, Chicago, Ill., USA) and xylazine (7.5 mg/kg) (100 mg/ml; Xyla-ject®, Phoenix Pharmaceutical, St. Joseph, Mo., USA) in a sterile 0.9% NaCl solution. Then the blood samples were taken by puncturing and aspiring from the left heart ventricle. Blood samples were mixed with 5 mM EDTA and centrifuged at 10000 g for 5 min to obtain the plasma for further analysis.
For brain distribution studies, mice were perfused under anesthesia with 20 ml ice-cold saline supplemented with 20 μl of 0.02% heparin by injecting slowly into the left heart ventricle using a 20 gauge needle. The right atrium was cut open before to allow the blood outflow. The yellow color of kidney indicated a good perfusion quality that was essential to deplete blood from the brain tissue. In GL261 tumor-bearing mice, GL261 tumor was distinguished from the normal brain by easily recognizable differences in color and shade. GL261 tumor was separated with a scalpel and the normal brain tissue was cut from the contralateral hemisphere. All brain samples were weighed and stored at −80° C. before processing.
Blood, brain and brain tumor tissues were harvested as a function of time after MBZ administration. To compare the pharmacokinetics of MBZ polymorphs, three cohorts of mice each were administered a single dose of 50 mg/kg by oral gavage. For the initial comparison studies, plasma samples were obtained at 1, 2.5, 4, 6, 8, 15, and 24 hours after MBZ administration while brain tissue was only collected at 6 hours. For the comparison studies of polymorph C with or without ELD, plasma and brain tissue samples were obtained at 2.5, 4, and 8 hours after MBZ administration. Brain tumor tissue samples were also obtained for polymorph C alone.
MBZ and the two metabolites, 2-amino-5-benzoyl-benzimidazole (MBZ-NH2, CAS 52329-60-9) and rac dihydro mebendazole (MBZ-OH, CAS 60254-95-7), were quantified in plasma, brain and brain tumor tissue. Tissue homogenates were prepared at a concentration of 200 mg/ml in plasma prior to extraction. Mebendazole and metabolites were extracted from 50 μl of plasma or tissue homogenates with 0.1 ml of methanol containing 0.5 μg/ml of the internal standard A620223.69. After centrifugation, the supernatant (60 μl) was mixed with water (40 μl) and then transferred into autosampler vials. […] The analytes were monitored using an AB Sciex triple quadrapole™ 5500 mass-spectrometric detector (Applied Biosystems, Foster City, Calif., USA) using electrospray ionization operating in positive mode. The spectrometer was programmed to allow the [MH+] ions of MBZ, MBZ-NH2, MBZ-OH, and A620223.69 at m/z 296.0, 238.0, 298.0, and 287.2, respectively to pass through the first quadrupole (Q1) and into the collision cell (Q2). The daughter ions for MBZ (m/z 263.9), MBZ-NH2 (m/z 105.1), MBZ-OH (m/z 266.0), and A620223.69 (m/z 124.1) were monitored through the third quadrupole (Q3). Calibration curves for MBZ and metabolites were computed using the area ratio peak of the analysis to the internal standard by using a quadratic equation with a 1/x weighting function over the range of 5 to 500 ng/ml (MBZ) and 1 to 500 ng/ml (metabolites) with dilutions of up to 1:100 (v:v). If one or more concentrations were below limits of quantification, a value of ½ the limit of quantification was assigned for pharmacokinetic calculations.

In data set [1] the test system is glioma and medulloblastoma cell lines. To be noted: tissue culture; cited from earlier work.
A further data set relates to SW480. Kind of data set: SW480 colon cancer flank xenograft. In kind it is in vivo, Nude mice. On the procedure: as §1
Data set [2] has as its system polyps in the intestine of APC min/+ mice. Kind of data set: APC min/+ mouse chemoprevention study (intestinal polyps). In kind it is in vivo.
Experimental: The average number of polyps for each treatment group were graphed for the proximal, middle and distal small intestines and colon (FIG. 11A). Individual polyps were measured and categorized based on size. The average number of polyps for Sulindac versus the combiniation of MBZ+Sulindac were analyzed separately for each section of the intestine (FIG. 11B).
The conditions of data set [3]: mice; cited from earlier work.
For data set [4] the following is noted: human; cited from earlier work.

Experimental for D425 medulloblastoma: The intracranial implantation of GL261-luc in the frontal lobe and D425 cells in the cerebellum of the mouse brain followed the procedure described before (3,4). Five days after tumor implantation, mice were gavaged with MBZ or the other benzimidazoles at 50 mg/kg five days a week. MBZ and other benzimidazoles were prepared by either mixing the power with PBS and sesame oil (1:1, v:v) (Sigma) or by grinding the tablets to powder and resuspending in the aforementioned PBS/sesame oil mixture. Elacridar was prepared as a 10 mg/ml suspension in 0.5% hydroxypropylmethylcellulose and 0.5% Tween 80 in PBS similarly as described before (15).

As for `COC(=O)Nc1nc2ccc(C(=O)c3ccccc3)cc2[nH]1` [MBZ, Mebendazole], the median survival in the data set on GL261-luc glioma and with D425 medulloblastoma was 53 days throughout. The “Ki67 proliferation marker staining” value in the data set with HT29 (HT29 flank tumor tissue) and in the data set with SW480 (SW480 flank tumor tissue) was “significantly less positive” each time. The “c-myc and Bcl-2 protein expression” value in the data set with HT29 (HT29 flank xenograft lysates) and in the data set with SW480 (SW480 flank xenograft lysates) was “reduction of these proteins in most cases” throughout. The “tumor growth and proliferation” value in the data set with HT29 (HT29 xenograft, 50 mg/kg MBZ oral gavage four weeks) was “inhibits growth and proliferation”; in the data set on SW480 (SW480 xenograft, 50 mg/kg MBZ oral gavage four weeks) it was “inhibits growth and proliferation”. Also, the “effect of ELD on average B/P ratios of MBZ” value in “in vivo” is “elevated”. The “distribution in GL261 brain tumor vs contralateral normal brain tissue” value in the data set “in vivo” (po, 50 mg/kg) is reported as “did not differ significantly”. In addition, in data set [1], the IC50 is 110 to 1000 nM. Also, the “formation, occurrence and size of polyps” value in [2] was “reduces the formation of polyps”.
With `Cn1nnc2c(C(N)=O)ncn2c1=O` [temozolomide], in [3], the B/P ratio is 0.408. The “cerebrospinal fluid (CSF)/plasma ratio” value in data set [4] is on record as 0.2.

As a reminder, the IC50 is the concentration that gives 50% inhibition.
